Laboratory results taken from paper PMC10544575, “Inhibitory mechanism of vortioxetine on CYP450 enzymes in human and rat liver microsomes” (Frontiers in Pharmacology, 2023).
Where two headings read alike, the source gives them in different places.

Key:
Assay type in all cases: in vitro ADME
CYP2C8 = biological target: T1, CYP2C8 (Homo sapiens, UniProt P10632); assay: IC50-shift experiment, CYP2C8 in HLMs; parameters: 0.20 mg/mL HLMs or 0.20 mg/mL RLMs; from tissue; host or cells: human liver microsomes; settings: for IC50: amodiaquine 3 μM
T1 sequence (P10632 1-490): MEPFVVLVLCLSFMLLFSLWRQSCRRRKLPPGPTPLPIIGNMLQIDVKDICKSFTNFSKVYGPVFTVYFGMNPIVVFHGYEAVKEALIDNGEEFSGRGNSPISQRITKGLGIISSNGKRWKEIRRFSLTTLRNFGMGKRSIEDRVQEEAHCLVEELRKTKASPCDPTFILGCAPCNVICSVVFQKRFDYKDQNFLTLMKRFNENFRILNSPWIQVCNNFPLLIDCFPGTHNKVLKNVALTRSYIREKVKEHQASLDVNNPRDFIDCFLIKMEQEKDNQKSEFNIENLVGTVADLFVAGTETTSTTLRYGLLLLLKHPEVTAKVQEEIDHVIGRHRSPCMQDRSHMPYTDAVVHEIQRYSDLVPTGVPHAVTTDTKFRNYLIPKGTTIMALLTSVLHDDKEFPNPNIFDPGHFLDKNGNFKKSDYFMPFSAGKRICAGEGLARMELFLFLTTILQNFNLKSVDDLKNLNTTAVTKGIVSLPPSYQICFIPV
Procedure: (§1) The components of the incubation system were as follows: 0.20 mg/mL HLMs or 0.20 mg/mL RLMs, 0.1 M Tris-HCl, vortioxetine, and the probe substrates of each enzyme. In the study of Km’s (Michaelis–Menten constant) experiment, midazolam (1, 2, 5, 10, 20, 50 and 100 μM in HLMs and RLMs) corresponded to CYP3A4/3A; bupropion (10, 20, 50, 100, 200, 500, 1,000 and 2000 μM in HLMs; 1, 2, 5, 10, 20, 50, 100 and 200 μM in RLMs) corresponded to CYP2B6/2B; amodiaquine (5, 10, 20, 50, 100 and 200 μM in HLMs; 10, 20, 50, 100, 200, 500 μM in RLMs) corresponded to CYP2C8/CYP2C-1; losartan (1, 2, 5, 10, 20, 50, 100, 200 μM in HLMs; 10, 20, 50, 100, 200, 500 and 1,000 μM in RLMs) corresponded to CYP2C9/CYP2C-2; mephenytoin (20, 50, 100, 200, 500 and 1,000 μM in HLMs; 5, 10, 20, 50, 100, 200, 500 and 1,000 μM in RLMs) corresponded to CYP2C19/CYP2C-3; and dextromethorphan (1, 2, 5, 10, 20, 50 and 100 μM in HLMs and RLMs) corresponded to CYP2D6/CYP2D. After 5.0 min of preincubation in the shaking water bath, the reaction was started with the addition of 1.0 mM NADPH. The incubated temperature at 37°C for 30 min. After the incubation, the enzyme reaction was stopped by cooling at −80°C, and 200 μL of acetonitrile and 20 μL of internal standard diazepam (200 ng/mL) were added for protein precipitation. […]
IC50-shift was used to investigate whether the drug produced time-dependent inhibition (TDI) of the enzyme. […] During the experiment, the individual substrates midazolam (4 μM), bupropion (40 μM), amodiaquine (3 μM), losartan (8 μM), mephenytoin (90 μM), and dextromethorphan (10 μM) were determined with vortioxetine IC50-shift in HLMs. […]
(§2) All experiments results were detected by UPLC-MS/MS, which equipped with a Waters Acquity UPLC system (Milford, MA, United States) and a Waters Xevo TQ-S triple quadrupole tandem mass spectrometer with an electrospray ionization source (Milford, MA, United States). […]
(§3) IC50 values and enzyme kinetic parameters were calculated by Graphpad Prism 6.0 (GraphPad software Inc., CA, United States). […] Data for each experiment were expressed as mean ± SD (n = 3).

CYP3A = assay: IC50 of vortioxetine on CYP3A (midazolam) in RLMs; settings: rat, rat liver microsomes, probe midazolam
Procedure: as §1, with “CYP2D6/CYP2D.” for “CYP2D6/CYP2D. After 5.0 min of preincubation in the shaking water bath, the reaction was started with the addition of 1.0 mM NADPH. The incubated temperature at 37°C for 30 min. After the incubation, the enzyme reaction was stopped by cooling at −80°C, and 200 μL of acetonitrile and 20 μL of internal standard diazepam (200 ng/mL) were added for protein precipitation.”
as §2, §3

CYP3A4 = CYP3A4 (Homo sapiens, UniProt P08684); assay: Reversible inhibition kinetics (Lineweaver-Burk), CYP3A4 in HLMs; parameters: 0.20 mg/mL HLMs; from tissue; host or cells: human liver microsomes; settings: midazolam
Sequence of CYP3A4 (P08684 whole entry): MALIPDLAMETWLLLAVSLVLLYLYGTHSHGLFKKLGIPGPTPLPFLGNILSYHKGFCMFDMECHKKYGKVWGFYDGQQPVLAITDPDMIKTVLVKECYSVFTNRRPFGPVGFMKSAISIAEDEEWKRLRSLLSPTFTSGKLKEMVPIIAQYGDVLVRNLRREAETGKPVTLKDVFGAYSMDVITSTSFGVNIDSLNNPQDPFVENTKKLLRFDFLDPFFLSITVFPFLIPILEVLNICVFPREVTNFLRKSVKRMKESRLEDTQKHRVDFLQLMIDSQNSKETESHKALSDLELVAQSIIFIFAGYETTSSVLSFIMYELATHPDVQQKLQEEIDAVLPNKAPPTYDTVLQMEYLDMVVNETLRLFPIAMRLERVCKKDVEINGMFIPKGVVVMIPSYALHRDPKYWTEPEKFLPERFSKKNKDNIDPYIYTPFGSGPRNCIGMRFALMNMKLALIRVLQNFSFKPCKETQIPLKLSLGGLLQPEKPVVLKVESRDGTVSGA
Procedure: The components of the incubation system were as follows: 0.20 mg/mL HLMs or 0.20 mg/mL RLMs, 0.1 M Tris-HCl, vortioxetine, and the probe substrates of each enzyme. In the study of Km’s (Michaelis–Menten constant) experiment, midazolam (1, 2, 5, 10, 20, 50 and 100 μM in HLMs and RLMs) corresponded to CYP3A4/3A; bupropion (10, 20, 50, 100, 200, 500, 1,000 and 2000 μM in HLMs; 1, 2, 5, 10, 20, 50, 100 and 200 μM in RLMs) corresponded to CYP2B6/2B; amodiaquine (5, 10, 20, 50, 100 and 200 μM in HLMs; 10, 20, 50, 100, 200, 500 μM in RLMs) corresponded to CYP2C8/CYP2C-1; losartan (1, 2, 5, 10, 20, 50, 100, 200 μM in HLMs; 10, 20, 50, 100, 200, 500 and 1,000 μM in RLMs) corresponded to CYP2C9/CYP2C-2; mephenytoin (20, 50, 100, 200, 500 and 1,000 μM in HLMs; 5, 10, 20, 50, 100, 200, 500 and 1,000 μM in RLMs) corresponded to CYP2C19/CYP2C-3; and dextromethorphan (1, 2, 5, 10, 20, 50 and 100 μM in HLMs and RLMs) corresponded to CYP2D6/CYP2D. After 5.0 min of preincubation in the shaking water bath, the reaction was started with the addition of 1.0 mM NADPH. The incubated temperature at 37°C for 30 min. After the incubation, the enzyme reaction was stopped by cooling at −80°C, and 200 μL of acetonitrile and 20 μL of internal standard diazepam (200 ng/mL) were added for protein precipitation. The solution was fully vortexed and centrifuged at 13,000 × rpm for 10 min, and the supernatant was collected for data analysis by UPLC-MS/MS.
The inhibitory mechanism of the inhibitor on the enzyme was generally used by different concentrations of the inhibitor against different concentrations of the probe substrate. The concentrations of the inhibitor and the concentrations of probe substrates in the experiment were estimated based on IC50 and Km values, respectively.
In HLMs, the concentrations of the substrates midazolam, bupropion, amodiaquine, losartan, mephenytoin, and dextromethorphan were 1, 2, 4, 8 μM; 10, 20, 40, 80 μM; 0.8, 1.5, 3, 6 μM; 2, 4, 8, 16 μM; 20, 45, 90, 180 μM; 2.5, 5, 10, 20 μM, respectively. Corresponding to the concentration of vortioxetine were 2, 4, 9, 18 μM; 2, 4, 8, 16 μM; 4, 8, 15, 30 μM; 5, 10, 25, 50 μM; 0.6, 1.2, 2.5, 5 μM; 4.5, 9, 18, 36 μM, respectively.
as §2, with “States). The chromatographic separation was performed on a Waters ACQUITY UPLC BEH C18 column (2.1 × 50 mm, 1.7 μm, Waters Corp.) at 40°C.” for “States).”
as §3

IC50 (CYP2C8; 30 min preincubation with 1.0 mM NADPH): 18.7 µM | IC50 (CYP2C8; 30 min preincubation without NADPH): 18.2 µM | IC50 at 30 min (CYP3A; RLMs 0.20 mg/mL, midazolam at Km, 37°C, 30 min, read-out: IC50): 16.4 µM | IC50 at 30 min (CYP3A; inhibitory effect (strength judged by IC50), RLMs): > 10 µM | Ki (CYP3A4): 7.26 µM | α (CYP3A4): 0.94 | Inhibition type (CYP3A4; Lineweaver-Burk plot): noncompetitive inhibition | αKi (CYP3A4; secondary plot of y-intercepts): 6.82 µM
Structure (SMILES): Cc1ccc(Sc2ccccc2N2CCNCC2)c(C)c1 [vortioxetine]
IC50 shift at 30 min (CYP2C8; human, human liver microsomes, probe amodiaquine (3 μM), ratio IC50 (−) NADPH to IC50 (+) NADPH, read-out: IC50 fold shift): 0.97
